Assay results taken from publication PMC12467382, “Synthesis and Bioevaluation of Chalcones as Broad-Spectrum Antiviral Compounds Against Single-Stranded RNA Viruses” (Biomolecules, 2025).

Experiments:
[1] = tested on: PIV5-GFP; assay: RT-qPCR of PIV5 genes (F, HN, NP) in infected Hs27 cells; type: cell-based, parainfluenza virus 5; settings: 10 µM before and after infection, MOI 10, normalized to actin
Experimental: Hs27 cells cultured in 6-well dishes were collected in TRIzol® (Invitrogen) followed by RNA extraction. To produce cDNA, 1 μg of total RNA was used with TaqMan® Reverse Transcription Reagents (Applied Biosystems, Foster City, CA, USA) as described in the manufacturer’s instructions. Quantitative real-time PCR was performed using Bio-Rad CFX Connect Real-Time (Bio-Rad, Hercules, CA, USA) and Fast SYBR® FAST Green Master Mix (Applied Biosystems, Foster City, CA, USA). Relative gene expression was determined using CFX Manager Software (Bio-Rad, version 2.3) and the following primers (Table 1).
To better understand how the chalcones were inhibiting virus growth, RT-qPCR was utilized to determine the effect of chalcone treatment on viral gene expression. Hs27 cells were treated with DMSO as a control or treated with 8o at a concentration of 10 µM. At 24 hpt, cells were mock infected or infected with PIV5-GFP at a high MOI and immediately replaced with media supplemented with 8o. Total RNA was collected at 2, 5, and 10 hpi and used in RT-qPCR assays to measure levels of the PIV5 genes: fusion (F) protein, hemagglutinin-neuraminidase (HN) protein, and nucleocapsid (NP) protein. Collection at various time points allows one to kinetically distinguish between the chalcone-mediated inhibition of early and late viral gene expression. Values were normalized to actin and were set relative to the DMSO-treated control of each corresponding time point.

[2] = tested on: PIV5-GFP; assay: Western blotting for PIV5 NP and P proteins in infected Hs27 cells; type: cell-based, parainfluenza virus 5; settings: 10 µM before and after infection; high MOI; lysates at 24 hpi
Text: Hs27 (human skin fibroblast) cells cultured in 6-well dishes were lysed using protein lysis buffer. Cell lysates were resolved on 12% sodium dodecyl sulfate-polyacrylamide gel electrophoresis (SDS-PAGE) gels and transferred to nitrocellulose membranes (Bio-Rad, Hercules, CA, USA). After normalizing samples via western blotting for β-actin (1:20,000 dilution, catalog number A5316, Sigma-Aldrich, St. Louis, MO, USA), samples were probed with rabbit polyclonal antibodies for the PIV5 NP (1:2000) and P proteins (1:2000). Blots were visualized using anti-mouse horseradish peroxidase (HRP)-conjugated antibodies (Sigma-Aldrich) and chemiluminescence (Thermo Fisher Scientific).
The above experiments utilized GFP expression and flow cytometry as an assay for observing the effects of chalcones on viral protein expression. To extend this analysis to bona fide viral proteins, cells were left untreated, DMSO-treated, or treated with the chalcone 8o at 10 μM for 24 h. Cells were then infected with PIV5-GFP at a high MOI and then cultured in control media or media supplemented with 8o.

`CCOc1ccc(Br)cc1/C=C/C(=O)c1c(O)cccc1OCc1ccccc1` [Chalcone 8o] was tested, and the “Viral gene expression (F, HN, NP) vs DMSO-treated control at 2 hpi” value [1] was “minimal differences”, the “Reduction in viral gene expression at 5 hpi” value ([1]; relative to DMSO) was ~ 5 fold and the “Reduction in viral gene expression at 10 hpi” value ([1]; relative to DMSO) was “greater than 100 fold”. The “PIV5 NP and P viral protein levels” value [2] was “very little viral protein”.
